The values that follow are results of earlier work, collected in US10828414B2, “Magnetic filtration devices and methods related thereto” (The Regents of the University of California, priority 2015, dated 2020).

Each structure is given as a SMILES string.

The conditions of the series: IAC, regardless of infused dose.

Consider `COc1cccc2c1C(=O)c1c(O)c3c(c(O)c1C2=O)C[C@@](O)(C(=O)CO)C[C@@H]3O[C@H]1C[C@H](N)[C@H](O)[C@H](C)O1` [Dox, doxorubicin], for which the “first pass hepatic clearance” value was 50-70%.
